Results on 17 compounds are retold here after EPA's ToxValDB 9.5.

The subject of series [1] is Rattus norvegicus. Conditions: oral.
The subject of another series is Mus musculus. Conditions: oral; for LOEL / NOEL: drinking water; for LEL / NEL: short-term, duration: 28 days, gavage, F, B6C3F1.
Series [2] concerns Rattus norvegicus. The note with it: oral. This is another data set of the same source.
The mark [3] stands for this setting: subchronic, duration: 90 days, diet, M/F, reduced body weight.
[4] abbreviates: developmental, diet, M/F, increased body weight and liver weight, reduced ossification and slightly dilated ureters in fetuses, reduced offspring weight gain, total ….
The mark [5] stands for this setting: chronic, duration: 2 years, diet, M/F, reduced body weight.
Setting [6] is: developmental, M/F, reduced pup survival.
Setting [7] is: chronic, M/F, kidney damage and reduced lifespan.
[8] abbreviates: chronic, duration: 6 months, M, Kunming, novel object test (discrimination index) + open field (outer zone entry events).
Where [9] appears, read: chronic, duration: 6 months, M, Kunming, open field (center square entry events) + open field (middle zone line cross events).
Setting [10] is: chronic, duration: 6 months, drinking water, M/F, Sprague-Dawley, Morris water maze (escape time, acquisition, day 1).
Where [11] appears, read: developmental, drinking water, M/F, Wistar, generation: F1, F1: activity time (developmental phase III) + F1: open field (squares traveled, 9 min).
[12] abbreviates: reproduction developmental, M/F, Increased incidence of hepatocellular changes including fatty change and vacuolation (M) increased susceptibility to stress factors (F).
The mark [13] stands for this setting: Liver: Liver Weight, Relative + Thymus: CD8+ Cell Count.
Setting [14] is: Spleen: Spleen Weight, Relative + Whole Body: Body Weight Change.
Setting [15] is: subchronic, duration: 90 days, diet, M/F, increased male spleen weight and che depression (females).
Where [16] appears, read: developmental, M/F, reduced pup weight.
Setting [17] is: chronic, duration: 2 years, diet, M/F, hematological effects (females).
[18] abbreviates: chronic, duration: 2 years, diet, M/F, reduced body weight, increased bun.

Values joined by “and” are separate entries in the source; they are usually repeats but may differ in a detail not shown here. Identical values can stand only once.

As for `CCCCOC(=O)COC(=O)c1ccccc1C(=O)OCCCC`, in the series on Rattus norvegicus [1] (chronic, no effects), the NOEL is 1000 mg/kg-day.

`ClCC(Cl)(Cl)Cl` [1,1,1,2-Tetrachloroethane] returned an LOAEL in the series on Rattus norvegicus [1] (chronic, gavage, M/F, mineralization of the kidneys (males), hepatic clear cell change (females)) of 125 mg/kg-day.

As to `C1CSCCS1` [1,4-Dithiane], the LOAEL with Rattus norvegicus [1] (subchronic, duration: 90 days, gavage, M/F, nasal olfactory lesions) amounted to 105 mg/kg-day.

`NS(=O)(=O)[O-].[NH4+]` [Ammonium sulfamate]: in the series on Rattus norvegicus [1] (setting [3]), the LEL is 500 mg/kg-day; the NOEL is 250 mg/kg-day and 214 mg/kg-day.

As to `COC(=O)NS(=O)(=O)c1ccc(N)cc1` [Asulam], the LEL in the series with Rattus norvegicus [1] (reproduction developmental, F, reduced ovarian weight, lower liver/body weight) turned out to be 50 mg/kg-day.

For the compound `CCCCC(CC)COC(=O)CCCCC(=O)OCC(CC)CCCC` (stereo unspecified) [Bis(2-ethylhexyl)hexanedioate], in the series with Rattus norvegicus [1] (setting [4]), the LOAEL was found to be 1080 mg/kg-day and the NOAEL came to 170 mg/kg-day.

For the compound `CCCCN(CCCC)SN(C)C(=O)Oc1cccc2c1OC(C)(C)C2` [Carbosulfan], in the series on Rattus norvegicus [1] (setting [5]), the LEL worked out at 25 mg/kg-day and the NOEL came out at 1 mg/kg-day.

In the series with Rattus norvegicus [1] (setting [6]), `COP(=O)(OC)O/C(C)=C/C(=O)N(C)C` [Dicrotophos] returned an LEL of 0.25 mg/kg-day and an NOEL of 0.1 mg/kg-day.

With `Cn1c(-c2ccccc2)cc(-c2ccccc2)[n+]1C` [Difenzoquat], in the series on Rattus norvegicus [1] (setting [5]), the LEL worked out at 125 mg/kg-day and the NOEL stood at 25 mg/kg-day.

On to `CCOC(=O)COC(=O)c1ccccc1C(=O)OCC` [Ethyl phthalyl ethyl glycolate], for which, in the series with Rattus norvegicus [1] (setting [7]), the LOAEL was 2500 mg/kg-day and the NOEL came out at 250 mg/kg-day.

As for `[F-]` [Fluoride], the LOEL in the series on Mus musculus (chronic, duration: 6 months, M/F, Kunming, active avoidance (shuttle box, 1st trial number where 3 consecutive conditioned avoidance responses occurred) + active avoidance (shuttle …) is 2.63 mg/kg-day; in the series with Mus musculus (setting [8]), 11.5 mg/kg-day; in the series with Mus musculus (setting [9]), 5.63 mg/kg-day; in the series on Mus musculus (chronic, duration: 6 months, M, Kunming, open field (middle zone entry events) + open field (outer zone line cross events) + open field (total distance moved)), 2.82 mg/kg-day; in the series on Mus musculus (subchronic, duration: 90 days, M, Swiss, open field (defecation) + open field (grooming events) + open field (rearing events) + open field (squares crossed)), 9.58 mg/kg-day; with Rattus norvegicus [2] (setting [10]) it was 5.96 mg/L urine. Further, the LOEL was 19 mg/kg-day with Rattus norvegicus [2] (chronic, duration: 16 weeks, drinking water, F, Sprague-Dawley, activity box (groom/attention cluster initiations) + activity box (groom/attention cluster total time) + activity box (groom/explore cluster…); 19 mg/kg-day in the series on Rattus norvegicus [2] (chronic, duration: 16 weeks, drinking water, M, Sprague-Dawley, activity box (attention cluster, total time) + activity box (groom cluster, initiations) + activity box (groom cluster, total time) + …); 10.4 mg/kg-day in the series with Rattus norvegicus [2] (chronic, duration: 104 days, drinking water, M, Sprague-Dawley, tail immersion (withdrawal latency to heat, day 112) + Von Frey hair test (withdrawal threshold, day 104)); 5.29 mg/kg-day in the series with Rattus norvegicus [2] (developmental, drinking water, F, Wistar, generation: F1, F1: pain response (latency time to respond to hot plate)); 3.27 mg/kg-day with Rattus norvegicus [2] (developmental, drinking water, M/F, Sprague-Dawley, generation: F1, F1: Morris water maze (escape time, acquisition, average over days 1-4) + F1: Morris water maze (platform crossing, probe test, day 5) + F1…); 5.29 mg/kg-day with Rattus norvegicus [2] (developmental, drinking water, M/F, Wistar, generation: F1, F1: Morris water maze (number of errors, acquisition) + F1: Morris water maze (time to find platform, probe test) + F1: open field (face …). For the same compound, the LOEL worked out at 16 mg/kg-day in the series on Rattus norvegicus [2] (developmental, drinking water, M/F, Wistar, generation: F1, F1: T-maze (number of errors, retention phase) + F1: T-maze (number of sessions to reach learning criterion)); 1.06 mg/kg-day in the series with Rattus norvegicus [2] (setting [11]); 0.21 mg/kg-day in the series on Rattus norvegicus [2] (developmental, drinking water, M/F, Wistar, generation: F1, F1: open field (face scrubbing events, 9 min)); 16 mg/kg-day in the series with Rattus norvegicus [2] (developmental, drinking water, M/F, Wistar, generation: F2, F2: T-maze (number of errors, retention phase) + F2: T-maze (number of sessions to reach learning criterion)); 16 mg/kg-day with Rattus norvegicus [2] (developmental, drinking water, M/F, Wistar, generation: F3, F3: T-maze (number of errors, retention phase) + F3: T-maze (number of sessions to reach learning criterion)); 5.29 mg/kg-day with Rattus norvegicus [2] (developmental, drinking water, M, Wistar, generation: F1, F1: pain response (latency time to respond to hot plate)). Further, the LOEL in the series on Rattus norvegicus [2] (subchronic, duration: 6 weeks, drinking water, F, Sprague-Dawley, activity box (groom cluster, initiations) + activity box (groom cluster, total time) + activity box (groom, initiations) + activity box (…) came to 21.4 mg/kg-day; in the series with Rattus norvegicus [2] (subchronic, drinking water, M/F, Sprague-Dawley, generation: P0, P0: Morris water maze (escape time, acquisition, average over days 1-4) + P0: Morris water maze (platform crossing, probe test, day 5) + P0…) it was 3.27 mg/kg-day. Moreover, the NOEL in the series with Mus musculus (chronic, duration: 6 months, M/F, Kunming, active avoidance (shuttle box, response latency to conditioned avoidance response averaged over 150 trials)) was determined as 26.3 mg/kg-day; in the series on Mus musculus (setting [8]), 5.63 mg/kg-day; in the series on Mus musculus (chronic, duration: 6 months, M, Kunming, novel object test (time exploring familiar object, long-term memory phase) + novel object test (time exploring familiar object, short-term …), 11.5 mg/kg-day; with Mus musculus (setting [9]), 2.82 mg/kg-day; in the series with Mus musculus (subchronic, duration: 90 days, M, Swiss, tail suspension test (immobility time, total 6 min)), 9.58 mg/kg-day; in the series with Rattus norvegicus [2] (chronic, duration: 4 months, diet, M, Hooded, T-maze, multiple (number of errors, acquisition, trial 1) + T-maze, multiple (number of errors, retention, trial 9) + T-maze, multiple (time…), 6.13 mg/kg-day. Besides, the NOEL with Rattus norvegicus [2] (setting [10]) was determined as 2.59 mg/L urine; in the series on Rattus norvegicus [2] (chronic, duration: 6 months, drinking water, M/F, Sprague-Dawley, Morris water maze (escape time, acquisition, day 5)), 5.96 mg/L urine; in the series with Rattus norvegicus [2] (chronic, duration: 16 weeks, drinking water, F, Sprague-Dawley, activity box (attention cluster, total time) + activity box (groom cluster, initiations) + activity box (groom cluster, total time) + …), 19 mg/kg-day; in the series with Rattus norvegicus [2] (chronic, duration: 16 weeks, drinking water, M, Sprague-Dawley, activity box (groom/attention cluster, total time) + activity box (head turn, initiations) + activity box (head turn, total time)) it was 19 mg/kg-day; in the series on Rattus norvegicus [2] (chronic, duration: 104 days, drinking water, M, Sprague-Dawley, Von Frey hair test (withdrawal threshold, day 0)) it was 20.8 mg/kg-day; in the series with Rattus norvegicus [2] (chronic, duration: 195 days, drinking water, M, Lou/C, tail immersion (withdrawal latency to heat, 195 days) + Von Frey hair test (withdrawal threshold, 195 days) + Von Frey hair test (withdrawal…), 20.8 mg/kg-day. The NOEL in the series on Rattus norvegicus [2] (developmental, drinking water, M/F, Wistar, generation: F1, F1: Morris water maze (number of errors, acquisition) + F1: Morris water maze (time to find platform, probe test)) turned out to be 1.06 mg/kg-day; in the series on Rattus norvegicus [2] (developmental, drinking water, M/F, Wistar, generation: F1, F1: activity time (developmental phase I) + F1: activity time (developmental phase II) + F1: activity time (developmental phase III) + F1: …), 5.29 mg/kg-day; with Rattus norvegicus [2] (setting [11]), 0.21 mg/kg-day; in the series on Rattus norvegicus [2] (subchronic, duration: 6 weeks, drinking water, F, Sprague-Dawley, activity box (attention cluster, total time) + activity box (groom/attention cluster, total time) + activity box (groom/explore cluster, …), 21.4 mg/kg-day. Further, the “NOEL (mg/kg ash femur)” value in the series on Rattus norvegicus [2] (chronic, duration: 8 months, drinking water, F, Sprague-Dawley, acquisition of the bar press response (days to reach learning criteria) + acquisition of the bar press response (maximum response)) was determined as 14800.

In the series with Rattus norvegicus [1] (setting [12]), `CC(C)C(O)(c1ccc(OC(F)(F)F)cc1)c1cncnc1` (stereo unspecified) [Flurprimidol] registered an LEL of 7.3 mg/kg-day and an NOEL of 1.8 mg/kg-day.

`CCNS(=O)(=O)C(F)(F)C(F)(F)C(F)(F)C(F)(F)C(F)(F)C(F)(F)C(F)(F)C(F)(F)F` [N-Ethylperfluorooctanesulfonamide]: the LEL was 1 mg/kg-day in the series on Mus musculus (setting [13]); 0.3 mg/kg-day in the series on Mus musculus (Spleen: Plaque Forming Cell (PFC) Response + Uterus: Uterus Weight, Relative); 10 mg/kg-day with Mus musculus (setting [14]); 6.82 mg/kg-day and 5.7 mg/kg-day in the series on Rattus norvegicus [2] (subchronic, duration: 56 days, diet, M, Sprague-Dawley, Whole Body: Body Weight Change). For the same compound, the NEL in the series with Mus musculus (setting [13]) is 0.3 mg/kg-day; with Mus musculus (Spleen: B Cell Proliferation + Spleen: B220+ Cell Count + Spleen: CD4-/CD8- Cell Count + Spleen: CD4+ Cell Count + Spleen: CD4+/CD8+ Cell …), 10 mg/kg-day; in the series with Mus musculus (setting [14]), 3 mg/kg-day; in the series with Rattus norvegicus [2] (subchronic, duration: 56 days, diet, M, Sprague-Dawley, Whole Body: Clinical Observations), 6.82 mg/kg-day and 5.7 mg/kg-day.

In the series on Rattus norvegicus [1] (setting [15]), `CC(C)OC(=O)Nc1ccccc1` [Propham] gave an LEL of 100 mg/kg-day and an NOEL of 50 mg/kg-day.

As for `C=C(C)[C@H]1Cc2c(ccc3c2O[C@@H]2COc4cc(OC)c(OC)cc4[C@@H]2C3=O)O1` [Rotenone], in the series on Rattus norvegicus [1] (setting [16]), the LEL was 1.88 mg/kg-day and the NOEL is 0.38 mg/kg-day.

Regarding `CCNc1nc(NC(C)(C)C)nc(SC)n1` [Terbutryn], in the series on Rattus norvegicus [1] (setting [17]), the LEL was 15 mg/kg-day and the NOEL was determined as 0.1 mg/kg-day.

For the compound `CCN(CC)C(=O)SCc1ccc(Cl)cc1` [Thiobencarb], in the series with Rattus norvegicus [1] (setting [18]), the LEL worked out at 5 mg/kg-day and the NOEL is 1 mg/kg-day.
